The NIST ThermoML archive (doi:10.1016/j.jct.2013.05.051)

Assay: xn = mol fraction of the nth substance listed
Conditions: Liquid, Vibrating tube method

CCCCCCCO [heptan-1-ol] + CCCCCCC
mass density [kg/m3]
Conditions	x1 = 0.1493	x1 = 0.3215	x1 = 0.5226	x1 = 0.6698	x1 = 0.8469	x1 = 1
298.15 K, 100 kPa	699.7	723.4	751.3	772.6	804.4	818.7
298.15 K, 1000 kPa	700.6	724.2	752.1	773.3	805.1	819.3
298.15 K, 5000 kPa	704.1	727.6	755.2	776.2	807.8	821.9
298.15 K, 10000 kPa	708.4	731.6	759	779.7	811.1	824.9
298.15 K, 15000 kPa	712.4	735.4	762.6	783.2	814.2	828
298.15 K, 20000 kPa	716.2	739.1	765.9	786.3	817.2	830.8
298.15 K, 25000 kPa	719.8	742.4	769.1	789.4	820	833.5
298.15 K, 30000 kPa	723.3	745.8	772.3	792.5	822.8	836.3
298.15 K, 35000 kPa	726.5	748.9	775.3	795.3	825.4	838.8
298.15 K, 40000 kPa	729.7	751.9	778.2	798	828.1	841.3
298.15 K, 45000 kPa	732.8	754.9	781	800.7	830.6	843.8
298.15 K, 50000 kPa	735.6	757.7	783.6	803.3	833	846.2
298.15 K, 55000 kPa	738.5	760.5	786.3	805.9	835.4	848.5
298.15 K, 60000 kPa	741.2	763.2	788.8	808.3	837.7	850.8
298.15 K, 65000 kPa	743.9	765.7	791.3	810.7	839.9	853
298.15 K, 70000 kPa	746.5	768.2	793.7	813.1	842.2	855.2
298.15 K, 80000 kPa	751.4	773	798.4	817.6	846.4	859.4
298.15 K, 90000 kPa	756.2	777.7	802.8	821.9	850.6	863.5
298.15 K, 100000 kPa	760.6	782	807	826	854.5	867.3
298.15 K, 110000 kPa	764.9	786.1	811.2	830	858.4	871.1
298.15 K, 120000 kPa	768.9	790.1	815	833.8	861.9	874.6
298.15 K, 130000 kPa	772.8	793.9	818.7	837.4	865.5	878.1
298.15 K, 140000 kPa	776.5	797.6	822.3	840.9	868.9	881.5
313.15 K, 100 kPa	686.8	711	739.3	760.9	793.4	808
313.15 K, 1000 kPa	687.7	711.8	740.1	761.7	794	808.6
313.15 K, 5000 kPa	691.7	715.5	743.5	764.9	796.9	811.4
313.15 K, 10000 kPa	696.4	719.9	747.6	768.7	800.4	814.7
313.15 K, 15000 kPa	700.8	724.1	751.5	772.3	803.8	817.9
313.15 K, 20000 kPa	704.9	728	755.2	775.8	807	821
313.15 K, 25000 kPa	708.6	731.5	758.4	778.9	809.9	823.8
313.15 K, 30000 kPa	712.6	735.3	762	782.3	813	826.8
313.15 K, 35000 kPa	716.1	738.7	765.2	785.4	815.9	829.5
313.15 K, 40000 kPa	719.4	741.9	768.2	788.3	818.5	832.1
313.15 K, 45000 kPa	722.7	745	771.2	791.1	821.2	834.7
